These results are taken from patent US11208387B2, “Macrocyclic broad spectrum antibiotics” (Genentech, Inc., priority 2019, dated 2021).

pIC50: −log10 of the molar value. In brackets after ≈: the same amount, converted by molar mass. Where two headings read alike, the source gives them in different places. Bounds are passed on as bounds.

In assay [1] the test system is isolated liver mitochondria. Put plainly: Mitochondrial oxygen consumption rate (OCR) assay. The class given is biochemical, Sprague-Dawley rats. As to conditions: isolated rat liver mitochondria, state 3 (S3) respiration, glutamate/malate; Table 3. The source says: Male Sprague-Dawley rats (8-10 weeks of age) were euthanized with an overdose of carbon dioxide. The liver was rapidly excised and placed in ice-cold phosphate-buffered saline (PBS) before isolation process. Mitochondria were isolated using the MitoCheck® Mitochondrial Isolation Kit (Cayman Chemical #701010, Ann Arbor, Mich.) according to manufacturer's instructions. In brief, approximately 10-14 grams of liver tissues were finely minced using a pair of scissors, and washed repeatedly with ice-cold PBS, followed by Mito Isolation Buffer. The minced tissues were homogenized with 30 ml Mito Homogenization Buffer in 40 ml dounce homogenizer and a smooth glass grinder. The homogenate was split into two clean 30 ml polycarbonate tubes and centrifuged at 1,000×g, 4° C., for 3 minutes. The supernatant was subjected to further centrifugation at 10,000×g, 4° C., for 10 minutes. The supernatant was discarded and mitochondrial pellet was suspended in Mito Isolation Buffer using a glass stirring rod and stored on ice until use. Protein concentration of mitochondria was determined using a bicinchoninic acid protein assay kit (Thermo Scientific, Waltham, Mass.).
Oxygen consumption was monitored as essentially described by Will et al., “Analysis of mitochondrial function using phosphorescent oxygen-sensitive probes,” Nature Protocols Vol. 1(6) (2006) 2563. Briefly, isolated mitochondria (50 μg mitochondrial proteins/state 3 (S3) of mitochondrial respiration for inhibitor identification, 100 μg/S2 for uncoupler identification) were incubated with compounds in 25 μl of Measurement Buffer (MB: 250 mM sucrose, 15 mM KCl, 1 mM EGTA, 5 mM MgCl2, 30 mM K2HPO4, pH 7.4) including 1% DMSO on ice for 1 hour, then mixed with 25 μl of substrate mixture including an oxygen-sensitive phosphorescent dye (MitoXpress Xtra, Agilent, Santa Clara, Calif.), glutamate (25 mM, G1626, Sigma, St. Louis, Mo.), malate (25 mM, M6413, Sigma), ADP (3.3 mM, A2754, Sigma, only for S3 of mitochondrial respiration), Fatty acid free BSA (0.1%, A0281, Sigma), and a complex II-specific inhibitor TTFA (2 μM, T27006, Sigma for the assessment of complex I-mitochondrial respiration with glutamate/malate) in a black wall/clear bottom 384-well plate. The mixtures were covered with HS mineral oil (Agilent) using the Viaflo 384-channel pipette (Integra, Hudson, N.H.). Oxygen consumption was measured for 30 min at 30° C. using a spectrofluorimeter (FLUOstar Omega, BMG Labtech, Cary, N.C.). In S3, DMSO vehicle control and antimycin A (10 μM) were used to define 0% and 100% inhibition. In S2, DMSO vehicle and FCCP (0.5-1 μM) was used to define 0% and 100% uncoupling, respectively. Area under curve typically in a range of 0-12 min (S3) or 0-24 min (S2) was used for calculations. IC50 or UC50 (uncoupling concentration), a concentration that causes 50% of inhibition or maximal (uncoupling) activation of oxygen consumption, was used to evaluate experimental quality. Data were presented as μM (per 50 μg (S3) or 100 μg (S2) mitochondrial proteins). Compounds with IC50: <100 μM (S3) and/or UC50: <200 μM (S2) were considered as high-risk on mitochondrial toxicity. Compounds with 25-50% changes in inhibition and/or uncoupling were categorized as medium-risk, since compounds with >25% changes are considered as responders.
Toxicity associated with mitochondrial dysfunction has presented a problem for promising potential antibiotics as we as other types of therapeutics. The mitochondrial oxygen consumption rate (OCR) assay is considered a reliable indicator of potential internal organ toxicity issues that may occur with powerful antibiotics. The carboxylate compounds of the invention show unexpected lower toxicity than prior art “glycine nitrile” arylomycin analogs (see, e.g., WO 2018/149419) in the mitochondrial oxygen consumption rate (OCR) assay.

For assay [2], the system named is Acinetobacter baumannii ATCC 17978. Put plainly: Serum MIC, broth micro-dilution. Conditions: Acinetobacter baumannii, ATCC17978, 50% v/v mouse serum in Mueller Hinton II cation adjusted Broth, 35° C., 22 hours. The class given is cell-based. The method in brief: (§1)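 Half mouse serum, half cation-adjusted MH II broth (v/v) served as test medium; bacteria at final OD600 0.0005 were exposed to serial 2-fold compound dilutions for 22 h, 35° C, and the MIC was determined per CLSI M07-A8.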

Assay [3] deals with Escherichia coli strain ATCC 25922. Put plainly: Serum MIC, broth micro-dilution. The class given is cell-based. Conditions: Escherichia coli, ATCC25922; 50% v/v mouse serum in Mueller Hinton II cation adjusted Broth, 35° C., 22 hours; Table 4; read-out: E. coli 25922 Serum MIC. The method in brief: as §1
For assay [4], the system named is Klebsiella pneumoniae ATCC 700603. Put plainly: Serum MIC, broth micro-dilution. The class given is cell-based. As to conditions: Klebsiella pneumoniae, ATCC700603; 50% v/v mouse serum in Mueller Hinton II cation adjusted Broth, 35° C., 22 hours; Table 4; read-out: K pneumoniae 700603 Serum MIC. The method in brief: as §1
The test system of assay [5] is Pseudomonas aeruginosa PA01. As to the kind of experiment: Serum MIC, broth micro-dilution. The format is cell-based. As to conditions: Pseudomonas aeruginosa, PA01; 50% v/v mouse serum in Mueller Hinton II cation adjusted Broth, 35° C., 22 hours; Table 4; read-out: P. aeruginosa 01 Serum MIC. Put shortly:
as §1

[6] abbreviates: Table 4, read-out: A. baumanii 17978 Serum MIC.
Setting [7] is: Table 5, read-out: Acinetobacter baumanii 17978 Serum MIC.

`C[C@@H]1NC(=O)[C@@H](N(C)C(=O)[C@H](CNS(N)(=O)=O)NC(=O)c2c(N)nc(-c3ccc(C(C)(C)C)cc3)nc2C(F)F)c2cc(OC[C@H](O)CN)c(O)c(c2)-c2cc(ccc2OC[C@H](O)CN)C[C@@H](C(=O)O)NC1=O` [Example 69, (8S,11S,14S)-14-[[(2S)-2-[[4-amino-2-(4-tert-butylphenyl)-6-(difluoromethyl)-pyrimidine-5-carbonyl]amino]-3-(sulfamoylamino)-propanoyl]-methyl-amino]-3,17-bis[(2R)-3-amino-2-hydroxy-propoxy]-18-hydroxy-11-methyl-10,13-dioxo-9,12-diazatri-cyclo[13.3.1.12,6]icosa-1(18),2(20),3,5,15(19), 16-hexaene-8-carboxylic acid] had a pIC50 in assay [1] of 4.36. Further, the MIC in assay [2] (setting [6]) turned out to be 4 µM (≈ 4.18 µg/mL); in assay [2] (setting [7]) it was 4 µM (≈ 4.18 µg/mL); in assay [3] it was 0.25 µM (≈ 0.261 µg/mL); in assay [4] it was 0.38 µM (≈ 0.397 µg/mL); in assay [5], 6 µM (≈ 6.26 µg/mL).

`Cc1nc(-c2ccc(C(C)(C)C)cc2)nc(CN)c1C(=O)N[C@@H](CNS(N)(=O)=O)C(=O)N(C)[C@@H]1C(=O)N[C@@H](C)C(=O)N[C@H](C(=O)O)Cc2ccc(OC[C@H](O)CN)c(c2)-c2cc1cc(OC[C@H](O)CN)c2O` [Example 72, (8S,11S,14S)-3,17-bis[(2R)-3-amino-2-hydroxy-propoxy]-14-[[(2S)-2-[[4-(amino-methyl)-2-(4-tert-butylphenyl)-6-methyl-pyrimidine-5-carbonyl]amino]-3-(sulfamoylamino)-propanoyl]-methyl-amino]-18-hydroxy-11-methyl-10,13-dioxo-9,12-diazatri-cyclo[13.3.1.12,6]icosa-1(18),2(20),3,5,15(19), 16-hexaene-8-carboxylic acid] gave a pIC50 in assay [1] of less than 3.70. For the same compound, the MIC worked out at 14 µM (≈ 14.3 µg/mL) in assay [2] (setting [6]); 14 µM (≈ 14.3 µg/mL) in assay [2] (setting [7]); 0.5 µM (≈ 0.511 µg/mL) in assay [3]; 0.31 µM (≈ 0.317 µg/mL) in assay [4]; 8 µM (≈ 8.18 µg/mL) in assay [5].

In turn, `Cc1nc(-c2ccc3c(c2O)CCC3(C)C)nc(N)c1C(=O)N[C@@H](CNS(N)(=O)=O)C(=O)N(C)[C@@H]1C(=O)N[C@@H](C)C(=O)N[C@H](C(=O)O)Cc2ccc(OC[C@H](O)CN)c(c2)-c2cc1cc(OC[C@H](O)CN)c2O` [Example 70, (8S,11S,14S)-18-hydroxy-11-methyl-14-[methyl-[(2S)-2-[[4-amino-2-(4-hydroxy-1,1-dimethyl-indan-5-yl)-6-methyl-pyrimidine-5-carbonyl]-amino]-3-(sulfamoyl-amino)propanoyl]-amino]-10,13-dioxo-3,17-bis[(2R)-3-amino-2-hydroxy-propoxy]-9,12-diazatricyclo-[13.3.1.12,6]icosa-1(18),2(20),3,5,15(19), 16-hexaene-8-carboxylic acid] gave a pIC50 in assay [1] of 4.32. Also, the MIC was determined as 16 µM (≈ 16.6 µg/mL) in assay [2] (setting [6]); 16 µM (≈ 16.6 µg/mL) in assay [2] (setting [7]); 0.5 µM (≈ 0.518 µg/mL) in assay [3]; 1 µM (≈ 1.04 µg/mL) in assay [4]; 4 µM (≈ 4.14 µg/mL) in assay [5].

Consider `Cc1nc(-c2ccc(C(C)(C)C)cc2)nc(N)c1C(=O)N[C@@H](CNS(N)(=O)=O)C(=O)N(C)[C@@H]1C(=O)N[C@@H](C)C(=O)N[C@H](C(=O)O)Cc2ccc(OC[C@@H](O)CN)c(c2)-c2cc1cc(OC[C@@H](O)CN)c2O` [Example 64, (8S,11S,14S)-14-[[(2S)-2-[[4-amino-2-(4-tert-butylphenyl)-6-methyl-pyrimidine-5-carbonyl]amino]-3-(sulfamoylamino)-propanoyl]-methyl-amino]-3,17-bis[(2S)-3-amino-2-hydroxy-propoxy]-18-hydroxy-11-methyl-10,13-dioxo-9,12-diazatri-cyclo[13.3.1.12,6]icosa-1(18),2(20),3,5,15(19), 16-hexaene-8-carboxylic acid], for which the pIC50 in assay [1] was less than 4.00. Further, the MIC in assay [2] (setting [6]) worked out at 8 µM (≈ 8.06 µg/mL); in assay [2] (setting [7]), 8 µM (≈ 8.06 µg/mL); in assay [3], 0.5 µM (≈ 0.504 µg/mL); in assay [4] it was 0.5 µM (≈ 0.504 µg/mL); in assay [5] it was 4 µM (≈ 4.03 µg/mL).

In the case of `Cc1nc(-c2ccc(C(C)(C)C)cc2)ncc1C(=O)N[C@@H](CNS(N)(=O)=O)C(=O)N(C)[C@@H]1C(=O)N[C@@H](C)C(=O)N[C@H](C(=O)O)Cc2ccc(OC[C@H](O)CN)c(c2)-c2cc1cc(OC[C@H](O)CN)c2O` [Example 8, (8S,11S,14S)-18-hydroxy-11-methyl-14-[methyl-[(2S)-2-[[2-(4-tert-butyl-phenyl)-4-methyl-pyrimidine-5-carbonyl]amino]-3-(sulfamoylamino)-propanoyl]amino]-10,13-dioxo-3,17-bis[(2R)-3-amino-2-hydroxy-propoxy]-9,12-diazatricyclo-[13.3.1.12,6]icosa-1(18),2(20),3,5,15(19), 16-hexaene-8-carboxylic acid], the pIC50 in assay [1] is 4.55. Moreover, the MIC in assay [2] (setting [6]) came out at 16 µM (≈ 15.9 µg/mL); in assay [2] (setting [7]) it was 16 µM (≈ 15.9 µg/mL); in assay [3], 0.38 µM (≈ 0.377 µg/mL); in assay [4], 0.5 µM (≈ 0.497 µg/mL); in assay [5], 7 µM (≈ 6.95 µg/mL).

Turning to `Cc1nc(-c2ccc(C(C)(C)C)cc2O)nc(N)c1C(=O)N[C@@H](CCN)C(=O)N(C)[C@@H]1C(=O)N[C@@H](C)C(=O)N[C@H](C(=O)O)Cc2ccc(OC[C@H](O)CN)c(c2)-c2cc1cc(OC[C@H](O)CN)c2O` [Example 43, (8S,11S,14S)-14-[[(2S)-4-amino-2-[[4-amino-2-(4-tert-butyl-2-hydroxy-phenyl)-6-methyl-pyrimidine-5-carbonyl]amino]-butanoyl]-methyl-amino]-3,17-bis[(2R)-3-amino-2-hydroxy-propoxy]-18-hydroxy-11-methyl-10,13-dioxo-9,12-diazatricyclo-[13.3.1.12,6]icosa-1(19),2(20),3,5,15,17-hexaene-8-carboxylic acid], the negative-log IC50 (pIC50) in assay [1] is less than 4.00. Besides, the minimum inhibitory concentration (MIC) was determined as 8 µM (≈ 7.67 µg/mL) in assay [2] (setting [6]); 8 µM (≈ 7.67 µg/mL) in assay [2] (setting [7]); 0.25 µM (≈ 0.24 µg/mL) in assay [3]; 0.25 µM (≈ 0.24 µg/mL) in assay [4]; 8 µM (≈ 7.67 µg/mL) in assay [5].
